Entries after “also recorded” stand apart in the source; their conditions may differ. Where two headings read alike, the source gives them in different places.
Tests used:
Assay type in all cases: cell-based
[1] = Cytotoxicity (resazurin) growth inhibition assay; settings: human
Protocol: The cytotoxicity of six compounds selected from in-silico screening was analyzed through a resazurin assay. Aliquots of 10^4 CYP3A4-overexpressing HepG2 cells were seeded per well into 96-well plates. Cells were treated with different concentrations of the selected compounds ranging from 0.003 to 100 µM in a total volume of 200 µL for 72 h. Then, 20 µL/well of resazurin 0.01% w/v (Sigma Aldrich, Taufkirchen, Germany) was added. The fluorescence intensity was measured with the Infinite M200 Pro-plate reader (Tecan, Crailsheim, Germany). Dose–response curves were generated from three independent experiments for each compound and 50% inhibition concentrations (IC50) were calculated. The analysis was represented using Prism 6 GraphPad Software (La Jolla, CA, USA).

[2] = test system: CYP3A4-overexpressing HepG2 cells; assay: RNA-sequencing and gene set enrichment analysis; settings: IC50 concentration, 24 h; for number of 'DNA-templated DNA replication' genes influenced by only one compound: Venn diagram; for activated pathway (gene set enrichment, GO Biological Process) / number of genes targeted in 'DNA-templated DNA replication' pathway / suppressed pathway (gene set enrichment, GO Biological Process) / number of genes affected in 'nuclear chromosome segregation' pathway / number of genes involved in 'inflammatory response' pathway: vs DMSO control
Protocol: Aliquots of 5 × 10^5 CYP3A4-overexpressing HepG2 cells were seeded into six-well-plates 24 h before treatment. Cells were treated with previously calculated IC50 concentrations of the compounds of interest. Control (ctrl) cells were treated with 0.2% DMSO. After 24 h incubation, the cells were harvested. RNA extraction was performed with the […] RNA Mini Kit (Invitek Molecular GmbH, Berlin, Germany), according to the manufacturer's instruction. Briefly, the cell pellet was lysed with 350 μL Lysis Solution and treated with β-mercaptoethanol. […] After several washing steps, RNA was eluted with 60 μL of Elution Buffer R and the concentration and purity measured with NanoDrop. Next-generation sequencing was conducted by […] GmbH, Mainz, Germany. The quality of the extracted RNA was verified by the company with a 2100 Bioanalyzer system (Agilent Technologies, CA, USA). After mRNA isolation and library preparation using the NEBNext^© UltraTM II Directional RNA Library Prep Kit (New England Biolabs, MA, USA), RNA sequencing of around 25 mio PE reads (2 × 12.5 M reads, 2 × 150 nt) was performed with the Illumina NextSeq 2000TM system. Each treatment and control group included two replicates. Quality control on the sequencing data was performed with the FastQC tool (0.12.0, https://www.bioinformatics.babraham.ac.uk/projects/fastqc/). Transcript abundance estimates were computed with Salmon (version 1.5.0) (Patro et al. [2017]) with a transcriptome index generated from the GENCODE (version 38), and subsequently summarized to gene level with the […] package (version 1.16.0) (Love et al. [2020]). The exploration, modelling, and interpretation of the expression data followed previously described protocols (Ludt et al. [2022]). Exploratory data analysis was executed with the pcaExplorer package (version 2.24.0) (Marini and Binder [2019]). Differential expression analysis was performed with DESeq2 package (version 1.38.3) (Love et al. [2014]), setting the false discovery rate (FDR) cutoff to 0.05. Accurate estimation of the effect sizes (described as log2 fold change) was finalized using the […] shrinkage estimator (version 1.20.0) (Zitovsky and Love [2020]). Subsequent analyses included Gene Ontology pathway enrichment by topGO (version 2.50.0) (Alexa et al. [2006])-using all expressed genes as background dataset and the ideal package (version 1.22.0) (Ludt et al. [2022])-and by clusterProfiler (version 4.6.0) (Wu et al. [2021]) with default settings using the log fold change as input. […] [2021]). Gene expression profiles were plotted as heatmaps (color-coded standardized Z scores for the expression values, after variance stabilizing transformation) to simplify comparison across samples.

[3] = test system: CYP3A4-overexpressing HepG2 cells; assay: Flow cytometric cell cycle analysis; settings: IC50 concentration, 24 h; for S-phase cells population: control 12.47 ± 0.83%; for cells in G2/M phase: control 18.70 ± 0.69%
Protocol: After 24 h of incubation, cells were fixed with ethanol and stored at −20 °C overnight. […] The measurement was performed using a BD LSRFortessa™ Cell Analyzer (Becton–Dickinson, Heidelberg, Germany). The results were analyzed using FlowJo software (Celeza, Olten, Switzerland).

[4] = CYP3A4-overexpressing HepG2 cells, 72 h, resazurin, mean ± SD of three independent experiments, read-out: IC50
[5] = 72 h, resazurin, mean ± SD of three independent experiments, read-out: IC50

Compound | IC50 at 72 h [1, 4] [µM] | number of 'DNA-templated DNA replication' genes influenced by only one compound [2] [genes] | activated pathway (gene set enrichment, GO Biological Process) [2] | number of genes targeted in 'DNA-templated DNA replication' pathway [2] [genes] | suppressed pathway (gene set enrichment, GO Biological Process) [2] | S-phase cells population [3] [%] | cells in G2/M phase [3] [%] | number of genes affected in 'nuclear chromosome segregation' pathway [2] [genes] | number of genes involved in 'inflammatory response' pathway [2] [genes] | IC50 at 72 h [1, 5] [µM] | IC50 at 72 h [1] [µM]
CC(c1cc(C(C)(C)C)cc(C(C)(C)C)c1O)c1cc(C(C)(C)C)cc(C(C)(C)C)c1O [compound 5, 1,1-bis(3,5-di-tert-butyl-2-hydroxyphenyl)ethane] | 20 ± 1.68 | 8 | autophagy; also recorded: process utilizing autophagic mechanism; also recorded: response to endoplasmic reticulum stress; also recorded: cytokine production; also recorded: Golgi vesicle transport; also recorded: response to growth factors; also recorded: cellular response to growth factor stimulation | 68 | cholesterol metabolic process; also recorded: cholesterol biosynthetic process; also recorded: secondary alcohol biosynthetic process; also recorded: sterol metabolic process; also recorded: alcohol metabolic process; also recorded: small molecule metabolic process; also recorded: organic hydroxy compound metabolic process | 10.88 ± 3.84 | 25.13 ± 2.25 |  |  |  | 
Cc1cc(Cc2cc(C)cc(C3CCCCC3)c2O)c(O)c(C2CCCCC2)c1 [compound 6, 2,2′-methylene bis(6-cyclohexyl-4-methylphenol)] | 18 ± 1.21 | 5 | response to nutrients levels; also recorded: regulation of extent of growth; also recorded: response to wounding; also recorded: inflammatory response; also recorded: cytokine production | 72 | regulation of chromosome segregation; also recorded: regulation of mitotic sister chromatid separation; also recorded: nuclear chromosome segregation; also recorded: chromosome organization | 7.06 ± 5.94 | 25.77 ± 0.95 | 83 | 90 |  | 
CC(C)(C)CC(C)(C)c1ccc(O)c(-n2nc3ccccc3n2)c1 [compound 3, octrizole] | 63.8 ± 2.21 |  |  |  |  |  |  |  |  |  | 
O=C(OC1CCCCC1)c1ccccc1C(=O)OC1CCCCC1 [compound 1, dicyclohexyl phthalate] |  |  |  |  |  |  |  |  |  | 72.7 | 
Cc1cc(Cc2cc(C)cc(C(C)(C)C)c2O)c(O)c(C(C)(C)C)c1 [compound 4, 2,2′-methylene bis(6-tert-butyl-4-methylphenol)] |  | 10 | icosanoid metabolic process; also recorded: anion transport; also recorded: response to metal ions; also recorded: regulation of growth; also recorded: response to cytokines; also recorded: inflammatory response | 78 | regulation of chromosome segregation; also recorded: regulation of mitotic sister chromatid separation; also recorded: nuclear chromosome segregation; also recorded: chromosome organization; also recorded: metaphase/anaphase transition of mitotic cell cycle; also recorded: response to vitamin | 6.26 ± 1.31 | 26.70 ± 8.40 | 103 | 76 |  | 17.4
CC(C)COC(=O)c1ccccc1C(=O)OCC(C)C [compound 2, diisobutyl phthalate] |  |  |  |  |  |  |  |  |  | > 100 | 
